For one compound, fraction unbound results are on record in US12139498B1, “Positive allosteric modulators of the muscarinic acetylcholine receptor M4” (Vanderbilt University, priority 2023, dated 2024).

The nature of the series: Fraction unbound in human plasma. The class given is in vitro ADME. To be noted: read-out: Human Fu (plasma). As for the experimental part:
Compound 70 was tested in several in in vitro assays to investigate both metabolism and pharmacokinetics. These assays may be performed according to known methods as generally described in the following references: Conde-Ceide et al. ACS Med. Chem. Lett. 2015, 6, 716-720; Morris et al. J. Med. Chem. 2014, 57, 10192-10197; and Bubser et al. ACS Chem. Neurosci. 2014, 5, 920-942.

For `Cc1c(N2CCc3nc(C4(F)CC4)sc3C2)nc2nn(C)c(=O)n2c1C` [Compound 70, 7-(2-(1-fluorocyclopropyl)-6,7-dihydrothiazolo[5,4-c]pyridin-5(4H)-yl)-2,5,6-trimethyl-[1,2,4]triazolo[4,3-a]pyrimidin-3(2H)-one], the fraction unbound was found to be 0.217.
